Source: patent US20130078317A1, “ZINC-CONTAINING COMPOSITIONS FOR THE TREATMENT OF DISEASES, ILLNESSES AND SYNDROMES ASSOCIATED WITH EXPOSURE TO PORE FORMING TOXINS” (priority 2009, published 2013)

Assays:
[1] = molecular target: T1, purified hemolysin from Carybdea alata (Alatina alata, UniProt Q9GNN8); assay: Potassium efflux induced by purified hemolysin from Carybdea alata in isolated red blood cells; format: cell-based; details: 2% RBC; FIG. 4 legend
T1 sequence (Q9GNN8 31-463 limits assumed): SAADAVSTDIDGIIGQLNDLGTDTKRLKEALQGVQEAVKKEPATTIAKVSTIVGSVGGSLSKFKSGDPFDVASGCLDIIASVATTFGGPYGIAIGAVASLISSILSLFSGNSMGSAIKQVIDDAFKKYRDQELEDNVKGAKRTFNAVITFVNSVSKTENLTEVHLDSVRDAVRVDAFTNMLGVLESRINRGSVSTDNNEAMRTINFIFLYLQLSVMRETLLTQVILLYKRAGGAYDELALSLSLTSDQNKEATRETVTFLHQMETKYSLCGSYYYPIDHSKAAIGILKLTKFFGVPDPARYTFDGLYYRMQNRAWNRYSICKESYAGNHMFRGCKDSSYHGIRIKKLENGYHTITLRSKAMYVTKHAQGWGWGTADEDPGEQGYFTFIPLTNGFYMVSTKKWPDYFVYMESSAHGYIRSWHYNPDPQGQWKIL

[2] = molecular target: T2, Carybdea alata hemolysin (Alatina alata, UniProt Q9GNN8); assay: Hemolysis induced by Carybdea alata hemolysin in 2% RBC; format: cell-based; details: 5 mM zinc gluconate
T2 sequence (Q9GNN8 31-463 limits assumed): T1 sequence (Q9GNN8 31-463 limits assumed)

Substance: zinc gluconate
- potassium efflux induced by purified hemolysin from Carybdea alata [1]: inhibits
- hemolysis induced by Carybdea alata hemolysin [2]: substantially inhibited
